According to PMC12482042, “Targeting galectin-3 in cancer by novel and unique inhibitors of non-carbohydrate origin” (Molecular Medicine, 2025):
Like-named read-outs stand apart in the source and are kept apart here.

Assays:
galectin-3 [1] = target: T1, galectin-3 (Homo sapiens, UniProt P17931); assay: intrinsic tryptophan fluorescence spectroscopy titration; also competitive ELISA against asialo-fetuin (IC50 […]) and CD; type: binding
T1 construct: gene LGALS3; human recombinant galectin-3 expressed in E. coli

galectin-3 [2] = target: T1, galectin-3; assay: as above; type: binding; remark: listed apart in the source

T1 sequence (P17931 2-250): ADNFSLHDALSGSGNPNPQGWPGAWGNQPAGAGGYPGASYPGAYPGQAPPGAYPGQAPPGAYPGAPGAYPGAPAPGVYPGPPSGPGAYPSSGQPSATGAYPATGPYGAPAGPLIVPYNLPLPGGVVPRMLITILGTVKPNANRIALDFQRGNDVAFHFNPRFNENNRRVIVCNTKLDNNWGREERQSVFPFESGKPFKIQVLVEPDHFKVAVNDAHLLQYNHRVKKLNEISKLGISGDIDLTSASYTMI

Row | Kd (galectin-3 [1]) [µM] | Kd (galectin-3 [2]) [µM] | Compound
1 | 18.1 ± 1.5 | – | C[C@H]1COc2c(N3CCN(C)CC3)c(F)cc3c(=O)c(C(=O)NNc4ccc(N)cc4)cn1c23 [K2]
2 | – | 30.2 ± 1.4 | C[C@H]1COc2c(N3CCN(C)CC3)c(F)cc3c(=O)c(C(=O)NNc4cccc(N)c4)cn1c23 [L2]
